{"source": "paper PMC9253107", "about": "“Engineering of ultraID, a compact and hyperactive enzyme for proximity-dependent biotinylation in living cells” (Communications Biology, 2022)", "target": "T1, microID (BioID2 [2-171]); with L41P = ultraID (Aquifex aeolicus, UniProt O66837, R40G/L41P)", "T1 construct": "gene birA; pET22b, E. coli BL21(DE3), IMAC purified", "T1 sequence (O66837 entry or part of it R40G/L41P)": "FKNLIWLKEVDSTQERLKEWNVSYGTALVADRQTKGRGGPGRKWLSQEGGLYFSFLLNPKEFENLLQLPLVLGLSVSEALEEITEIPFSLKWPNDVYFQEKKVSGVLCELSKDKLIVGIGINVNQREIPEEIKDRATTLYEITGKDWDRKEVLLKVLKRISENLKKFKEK", "assay": "ELISA-based biotinylation assay, streptavidin-alkaline phosphatase", "assay_type": "biochemical", "details": "50 µM biotin, 2.5 mM ATP, 5 mM MgCl2, pH 7.5, 37 °C, 10 min; acceptor human serum albumin"}
{"smiles": "O=C(O)CCCC[C@@H]1SC[C@@H]2NC(=O)N[C@@H]21", "note": "[biotin]", "values": [{"measurement": "ELISA-based biotinylation assay, streptavidin-alkaline phosphatase", "value": "combined R40G/L41P mutations showed the highest activity of all tested variants"}]}
